Where two headings read alike, the source gives them in different places.

Data on 45 compounds can be found in patent publication US8623879B2, “1-heterocyclyl-1,5-dihydro-pyrazolo[3,4-D] pyrimidin-4-one derivates and their use as PDE9A modulators” (Boehringer Ingelheim International GmbH, priority 2008, dated 2014).

The target in the experiment is T1, human PDE9A2 (Homo sapiens, UniProt O76083).
T1 construct: made in house; host or cells: Sf9 insect cells (infected); crude lysate used as enzyme source
The experiment is described as follows: PDE9A2 enzymatic activity assay (scintillation proximity assay, SPA). Format: biochemical. To be noted: for IC50: reported only as range 1-100 or 101-1200 nanomolar, specific value lies within range.

Setting [1] is: read-out: % inhibition of PDE9A2 (at 10 micromolar concentration), 10 micromolar concentration, values above 100% adjusted to 100%.
Where [2] appears, read: read-out: IC50 within range [nanomolar (nM)].

T1 sequence (O76083 1-533 isoform O76083-2): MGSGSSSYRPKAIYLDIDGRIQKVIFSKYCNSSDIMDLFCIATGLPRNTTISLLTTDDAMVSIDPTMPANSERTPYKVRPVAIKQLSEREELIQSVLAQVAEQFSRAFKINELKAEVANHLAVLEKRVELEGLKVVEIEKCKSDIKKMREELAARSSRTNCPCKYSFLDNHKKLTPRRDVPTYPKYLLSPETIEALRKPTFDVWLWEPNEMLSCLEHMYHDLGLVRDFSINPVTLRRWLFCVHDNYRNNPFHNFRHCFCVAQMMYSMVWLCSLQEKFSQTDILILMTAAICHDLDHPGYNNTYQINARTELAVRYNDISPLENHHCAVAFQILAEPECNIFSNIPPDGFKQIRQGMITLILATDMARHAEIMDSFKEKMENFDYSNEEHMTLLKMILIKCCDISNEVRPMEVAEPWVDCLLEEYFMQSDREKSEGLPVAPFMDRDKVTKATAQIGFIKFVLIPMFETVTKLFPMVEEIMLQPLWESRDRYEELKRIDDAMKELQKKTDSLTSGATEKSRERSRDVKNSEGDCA

In the case of `O=c1[nH]c(Cc2ccccc2Cl)nc2c1cnn2C1CCOCC1` [Example 4], the inhibition at 10 µM under setting [1] amounted to 98%. The IC50 (as a rule, the concentration that inhibits the measured activity by half) under setting [2] lay within 1 to 100 nM.

Take `O=c1[nH]c(Cc2ccccc2Br)nc2c1cnn2C1CCOCC1` [Example 5]: the inhibition at 10 µM under setting [1] is 99%. Besides, the half-inhibitory concentration (IC50) under setting [2] was 1 to 100 nM.

In the case of `O=c1[nH]c(Cc2c(F)cccc2Cl)nc2c1cnn2C1CCOCC1` [Example 6], the inhibition at 10 µM under setting [1] amounted to 98%. The IC50 under setting [2] fell in the range of 1 to 100 nM.

For the compound `O=c1[nH]c(Cc2cc(F)cc(F)c2)nc2c1cnn2C1CCOCC1` [Example 7], the inhibition at 10 µM under setting [1] stood at 98%. For the same compound, under setting [2], the IC50 is 1 to 100 nM.

On to `CCCCc1nc2c(cnn2C2CCOCC2)c(=O)[nH]1` [Example 8], for which the inhibition at 10 µM under setting [1] is 100%. Also, under setting [2], the IC50 lay within 1 to 100 nM.

On to `O=c1[nH]c(CCC2CCCC2)nc2c1cnn2C1CCOCC1` [Example 9], for which, under setting [1], the inhibition at 10 µM turned out to be 99%. For the same compound, the IC50 under setting [2] is 1 to 100 nM.

Regarding `O=c1[nH]c(Cc2ccc(F)cc2Cl)nc2c1cnn2C1CCOCC1` [Example 10], the inhibition at 10 µM under setting [1] worked out at 98%. Besides, under setting [2], the half-inhibitory concentration (IC50) was in the range of 1 to 100 nM.

Regarding `COc1ccc(Cc2nc3c(cnn3C3CCOCC3)c(=O)[nH]2)cc1` [Example 11], under setting [1], the inhibition at 10 µM turned out to be 98%. Also, the IC50 under setting [2] lay in the range of 1 to 100 nM.

For `O=c1[nH]c(C(F)(F)c2ccccc2)nc2c1cnn2C1CCOCC1` [Example 13], the inhibition at 10 µM under setting [1] was determined as 90%. In addition, the IC50 under setting [2] lay in the range of 101 to 1200 nM.

For `Cc1nc(Cc2nc3c(cnn3C3CCOCC3)c(=O)[nH]2)c(C)s1` [Example 24], the inhibition at 10 µM under setting [1] amounted to 86%. Further, the IC50 under setting [2] fell in the range of 101 to 1200 nM.

For `O=c1[nH]c(CCCC(F)(F)F)nc2c1cnn2C1CCOCC1` [Example 25], the inhibition at 10 µM under setting [1] came out at 96%. The IC50 under setting [2] fell in the range of 1 to 100 nM.

Regarding `O=c1[nH]c(Cn2cccn2)nc2c1cnn2C1CCOCC1` [Example 26], the inhibition at 10 µM under setting [1] stood at 91%. The IC50 under setting [2] fell in the range of 101 to 1200 nM.

Take `COc1ccc(Cc2nc3c(cnn3C3CCOCC3)c(=O)[nH]2)cc1F` [Example 27]: the inhibition at 10 µM under setting [1] was 99%. The IC50 under setting [2] was 1 to 100 nM.

Take `O=c1[nH]c(Cc2ccccc2O)nc2c1cnn2C1CCOCC1` [Example 28]: the inhibition at 10 µM under setting [1] turned out to be 98%. Also, the IC50 under setting [2] lay within 1 to 100 nM.

Take `CCCc1nc2c(cnn2C2CCOCC2)c(=O)[nH]1` [Example 29]: the inhibition at 10 µM under setting [1] is 96%. The IC50 under setting [2] was in the range of 1 to 100 nM.

In the case of `COc1cccc(Cl)c1Cc1nc2c(cnn2C2CCOCC2)c(=O)[nH]1` [Example 33], the inhibition at 10 µM under setting [1] was 97%. Moreover, under setting [2], the IC50 lay in the range of 1 to 100 nM.

As for `O=c1[nH]c(CCC(F)(F)F)nc2c1cnn2C1CCOCC1` [Example 34], the inhibition at 10 µM under setting [1] was determined as 93%. Also, under setting [2], the half-inhibitory concentration (IC50) was in the range of 101 to 1200 nM.

For the compound `COc1ccc(C#N)c(Cc2nc3c(cnn3C3CCOCC3)c(=O)[nH]2)c1` [Example 35], the inhibition at 10 µM under setting [1] came out at 100%. Also, under setting [2], the IC50 was in the range of 101 to 1200 nM.

Take `Cc1cc(C)cc(Cc2nc3c(cnn3C3CCOCC3)c(=O)[nH]2)c1` [Example 36]: under setting [1], the inhibition at 10 µM came to 100%. For the same compound, the IC50 under setting [2] was 1 to 100 nM.

In the case of `O=c1[nH]c(Cc2c(F)ccc(F)c2Cl)nc2c1cnn2C1CCOCC1` [Example 37], the inhibition at 10 µM under setting [1] came to 97%. Besides, the IC50 under setting [2] lay in the range of 1 to 100 nM.

In the case of `O=c1[nH]c(Cc2cc(Cl)cc(Cl)c2)nc2c1cnn2C1CCOCC1` [Example 38], the inhibition at 10 µM under setting [1] stood at 99%. The IC50 under setting [2] was in the range of 1 to 100 nM.

In the case of `O=c1[nH]c(Cc2cccc(Cl)c2)nc2c1cnn2C1CCOCC1` [Example 39], under setting [1], the inhibition at 10 µM was found to be 99%. The IC50 under setting [2] lay in the range of 1 to 100 nM.

In the case of `O=c1[nH]c(CCC2CCC2)nc2c1cnn2C1CCOCC1` [Example 40-1], under setting [1], the inhibition at 10 µM stood at 100%. Further, under setting [2], the IC50 lay in the range of 1 to 100 nM.

For `COc1ccc(Cc2nc3c(cnn3C3CCOCC3)c(=O)[nH]2)c(Cl)c1` [Example 40-2], under setting [1], the inhibition at 10 µM turned out to be 100%. Under setting [2], the IC50 fell in the range of 1 to 100 nM.

For `COc1ccccc1CCc1nc2c(cnn2C2CCOCC2)c(=O)[nH]1` [Example 40-3], the inhibition at 10 µM under setting [1] worked out at 100%. Further, the IC50 under setting [2] was in the range of 101 to 1200 nM.

Turning to `O=c1[nH]c(CC2CC2)nc2c1cnn2C1CCSCC1` [Example 40-5], the inhibition at 10 µM under setting [1] turned out to be 98%. Besides, the IC50 under setting [2] is 1 to 100 nM.

`O=c1[nH]c(CC2CCC(F)(F)CC2)nc2c1cnn2C1CCOCC1` [Example 40-6]: the inhibition at 10 µM under setting [1] was 97%. The 50% inhibitory concentration (IC50) under setting [2] lay within 1 to 100 nM.

On to `Cc1cccn(-c2ccccc2Cc2nc3c(cnn3C3CCOCC3)c(=O)[nH]2)c1=O` [Example 40-7], for which the inhibition at 10 µM under setting [1] was determined as 95%. Under setting [2], the IC50 was 101 to 1200 nM.

`O=c1[nH]c(Cc2ccccc2)nc2c1cnn2C1CCOCC1` [Example 40]: the IC50 (IC50 within range [nanomolar (nM)]) was in the range of 1 to 100 nM. Further, where the note is “read-out: % inhibition of PDE9A2 (at 10 micromolar concentration)”, the inhibition at 10 µM stood at 99%.

For the compound `O=c1[nH]c(CC2CCOCC2)nc2c1cnn2C1CCOCC1` [Example 41], under setting [1], the inhibition at 10 µM was 92%. Also, the IC50 under setting [2] fell in the range of 101 to 1200 nM.

Regarding `O=c1[nH]c(CC2CCC2)nc2c1cnn2C1CCOCC1` [Example 43], the inhibition at 10 µM under setting [1] turned out to be 98%. Also, the IC50 under setting [2] lay within 1 to 100 nM.

`O=c1[nH]c(Cc2cccc(C(F)(F)F)c2)nc2c1cnn2C1CCOCC1` [Example 44]: under setting [1], the inhibition at 10 µM came out at 99%. Further, the concentration for half-maximal inhibition (IC50) under setting [2] fell in the range of 1 to 100 nM.

Regarding `O=c1[nH]c(Cc2ccccc2C(F)(F)F)nc2c1cnn2C1CCOCC1` [Example 45], under setting [1], the inhibition at 10 µM amounted to 98%. The IC50 under setting [2] lay within 1 to 100 nM.

Regarding `O=c1[nH]c(CC2CC2)nc2c1cnn2C1CCOCC1` [Example 47], the inhibition at 10 µM under setting [1] stood at 97%. For the same compound, the IC50 under setting [2] lay in the range of 1 to 100 nM.

Regarding `COc1ccccc1Cc1nc2c(cnn2C2CCOCC2)c(=O)[nH]1` [Example 49], the inhibition at 10 µM under setting [1] is 98%. For the same compound, under setting [2], the IC50 is 1 to 100 nM.

Consider `O=c1[nH]c(Cc2cc(OC(F)(F)F)ccc2F)nc2c1cnn2C1CCOCC1` [Example 50], for which the inhibition at 10 µM under setting [1] stood at 97%. Moreover, under setting [2], the IC50 lay within 1 to 100 nM.

Regarding `O=c1[nH]c(Cc2ccccn2)nc2c1cnn2C1CCOCC1` [Example 51], the inhibition at 10 µM under setting [1] came to 96%. Moreover, the IC50 under setting [2] lay in the range of 1 to 100 nM.

On to `CCOc1ccccc1Cc1nc2c(cnn2C2CCOCC2)c(=O)[nH]1` [Example 52], for which, under setting [1], the inhibition at 10 µM came to 100%. For the same compound, the IC50 under setting [2] was in the range of 1 to 100 nM.

In the case of `N#Cc1ccccc1Cc1nc2c(cnn2C2CCOCC2)c(=O)[nH]1` [Example 53], the inhibition at 10 µM under setting [1] worked out at 99%. Besides, the concentration for half-maximal inhibition (IC50) under setting [2] was in the range of 1 to 100 nM.

Turning to `CC(C)Oc1ccccc1Cc1nc2c(cnn2C2CCOCC2)c(=O)[nH]1` [Example 54], the inhibition at 10 µM under setting [1] came out at 97%. Also, the half-inhibitory concentration (IC50) under setting [2] was 1 to 100 nM.

As for `O=c1[nH]c(Cc2ccccc2OCC2CC2)nc2c1cnn2C1CCOCC1` [Example 55], the inhibition at 10 µM under setting [1] is 97%. In addition, the IC50 under setting [2] fell in the range of 1 to 100 nM.

`Cc1cccnc1Cc1nc2c(cnn2C2CCOCC2)c(=O)[nH]1` [Example 56]: the inhibition at 10 µM under setting [1] is 95%. Besides, the IC50 under setting [2] fell in the range of 1 to 100 nM.

As to `O=c1[nH]c(Cc2ccccc2O[C@@H]2CCOC2)nc2c1cnn2C1CCOCC1` [Example 57], the inhibition at 10 µM under setting [1] stood at 100%. Also, under setting [2], the IC50 is 1 to 100 nM.

Regarding `O=c1[nH]c(Cc2ccccc2O[C@H]2CCOC2)nc2c1cnn2C1CCOCC1` [Example 58], under setting [1], the inhibition at 10 µM was determined as 96%. Under setting [2], the IC50 is 1 to 100 nM.

On to `O=c1[nH]c(Cc2ccccc2OC2CCOCC2)nc2c1cnn2C1CCOCC1` [Example 60], for which the inhibition at 10 µM under setting [1] turned out to be 97%. The IC50 under setting [2] was 1 to 100 nM.
